Reference: ChEMBL document CHEMBL1201862, “PubChem BioAssay data set” (2004)
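Growth conditions: 96-well plates. Treatment: test compound, 48 hours, 5 concentrations. Analysis: linear interpolation between bracketing concentrations; unreached endpoints set to highest concentration. At the GI50, growth is halved.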 Activity calls are given as the source filed them. No stated cut-off is given here; in the data, active = GI50 up to about 1.1 µM and inactive = higher.

Legend:
Assay in all cases: NCI anticancer screen, dose series, 48 h
OVCAR-4 = system: OVCAR-4
Malme-3M = system: Malme-3M
KM12 = system: KM12
A549 = system: A549
DU-145 = system: DU-145
NCI-H460 = system: NCI-H460
OVCAR-3 = system: OVCAR-3
SK-OV-3 = system: SK-OV-3
SK-MEL-2 = system: SK-MEL-2
MCF7 = system: MCF7
HCT-15 = system: HCT-15
MDA-MB-435 = system: MDA-MB-435
HCC 2998 = system: HCC 2998
MDA-N = system: MDA-N
EKVX = system: EKVX
HCT-116 = system: HCT-116
SNB-75 = system: SNB-75
NCI-H226 = system: NCI-H226
SN12C = system: SN12C
NCI-H23 = system: NCI-H23
786-0 = system: 786-0
Hs-578T = system: Hs-578T
NCI/ADR-RES = system: NCI/ADR-RES
IGROV-1 = system: IGROV-1
NCI-H522 = system: NCI-H522
HOP-62 = system: HOP-62
UO-31 = system: UO-31
TK-10 = system: TK-10
SR = system: SR
COLO 205 = system: COLO 205
MDA-MB-231 = system: MDA-MB-231
HL-60 = system: HL-60
BT-549 = system: BT-549
MOLT-4 = system: MOLT-4
HT-29 = system: HT-29
RPMI-8226 = system: RPMI-8226
U-251 = system: U-251
T47D = system: T47D
SK-MEL-28 = system: SK-MEL-28
OVCAR-8 = system: OVCAR-8
RXF 393 = system: RXF 393
OVCAR-5 = system: OVCAR-5
UACC-257 = system: UACC-257
A498 = system: A498
SF-295 = system: SF-295
SW-620 = system: SW-620
CCRF-CEM = system: CCRF-CEM
SNB-19 = system: SNB-19
UACC-62 = system: UACC-62
PC-3 = system: PC-3
SF-539 = system: SF-539
SF-268 = system: SF-268
K562 = system: K562
CAKI-1 = system: CAKI-1
LOX IMVI = system: LOX IMVI
HOP-92 = system: HOP-92
ACHN = system: ACHN
SK-MEL-5 = system: SK-MEL-5
M14 = system: M14

Measured: GI50

COC(=O)c1c(C)cccc1C1CN=NC12Cc1ccccc1C2=O (stereo not drawn)
inactive: OVCAR-4 > 92.3 µM | Malme-3M > 45.1 µM | KM12 > 78 µM | A549 > 82.6 µM | DU-145 > 100 µM | NCI-H460 > 75.9 µM | OVCAR-3 15.7 µM | SK-OV-3 > 100 µM | SK-MEL-2 > 100 µM | MCF7 2.46 µM | MDA-MB-435 > 82 µM | HCC 2998 > 100 µM | MDA-N > 100 µM | EKVX > 93.5 µM | HCT-116 46.2 µM | SNB-75 65.2 µM | NCI-H226 > 83.4 µM | SN12C > 100 µM | NCI-H23 60.4 µM | 786-0 > 100 µM | Hs-578T 96.2 µM | NCI/ADR-RES 35.1 µM | IGROV-1 > 91.2 µM | NCI-H522 43.5 µM | HOP-62 > 100 µM | UO-31 33.1 µM | TK-10 > 100 µM | SR 47.2 µM | COLO 205 60.8 µM | MDA-MB-231 45.7 µM | HL-60 36.9 µM | BT-549 54.5 µM | MOLT-4 36.2 µM | HT-29 > 100 µM | RPMI-8226 35.3 µM | U-251 > 100 µM | T47D 38.1 µM | SK-MEL-28 > 71.1 µM | OVCAR-8 > 100 µM | RXF 393 > 100 µM | OVCAR-5 > 100 µM | UACC-257 36.1 µM | A498 98.6 µM | SF-295 62.2 µM | SW-620 > 100 µM | CCRF-CEM 38.6 µM | SNB-19 > 100 µM | UACC-62 74.6 µM | PC-3 78.5 µM | SF-539 > 100 µM | SF-268 > 53 µM | K562 37.1 µM | CAKI-1 98.6 µM | LOX IMVI 31.2 µM | HOP-92 > 57.7 µM | ACHN > 100 µM | SK-MEL-5 37.4 µM | M14 20.1 µM
78.3 µM: HCT-15

COc1ccc(/C=C2\CCC(C)C3=C2NC(=S)NC3c2ccc(OC)c(OC)c2)cc1OC (stereo not drawn)
inactive: OVCAR-4 35.4 µM | Malme-3M > 10 µM | KM12 12 µM | A549 16.9 µM | DU-145 27.2 µM | NCI-H460 41.8 µM | OVCAR-3 24.4 µM | SK-OV-3 29.9 µM | SK-MEL-2 26.5 µM | MCF7 14.9 µM | MDA-MB-435 6.3 µM | HCC 2998 74.1 µM | MDA-N 3.83 µM | EKVX 20.1 µM | HCT-116 15.3 µM | SNB-75 > 100 µM | NCI-H226 > 78 µM | SN12C 24.9 µM | NCI-H23 > 10 µM | 786-0 22.3 µM | Hs-578T 30.8 µM | NCI/ADR-RES 27.5 µM | IGROV-1 13.6 µM | NCI-H522 > 100 µM | HOP-62 > 100 µM | UO-31 12.6 µM | TK-10 19.7 µM | SR 2.65 µM | COLO 205 8.59 µM | MDA-MB-231 18.2 µM | HL-60 3.6 µM | BT-549 13.3 µM | MOLT-4 4.99 µM | HT-29 26 µM | RPMI-8226 5.16 µM | U-251 24.6 µM | T47D 2.33 µM | SK-MEL-28 > 31.6 µM | OVCAR-8 26.1 µM | RXF 393 > 10 µM | OVCAR-5 > 31.6 µM | UACC-257 > 31.6 µM | A498 > 31.6 µM | SF-295 12 µM | SW-620 26.1 µM | CCRF-CEM 8.95 µM | SNB-19 30.4 µM | UACC-62 20.2 µM | PC-3 10.7 µM | SF-539 27.2 µM | SF-268 25.5 µM | K562 3.99 µM | CAKI-1 15.6 µM | LOX IMVI 17.4 µM | HOP-92 36.1 µM | ACHN 24.3 µM | SK-MEL-5 12.5 µM | M14 19.5 µM
9.95 µM: HCT-15
